Test results taken from patent US20190110476A1, “NOVEL ISOTHIAZOLAMIDES, PROCESSES FOR THEIR PREPARATION AND THEIR USE AS FUNGICIDES” (priority 2014, published 2019).

Experiments:
[1] = Measurement of LogP values by HPLC on reversed phase columns (EEC directive 79/831 Annex V.A8); type: physicochemical; conditions: for chromatographic logP: HPLC LC-UV, acidic range, 0.1% formic acid in water and acetonitrile as eluent
Summary of the method: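 Following EEC directive 79/831 Annex V.A8, lipophilicity was derived from retention on reversed-phase HPLC columns. Separate values are given per diastereoisomer, and UV lambda-max (200–400 nm) was read at the peak signals.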

| Compound | LogP [a] [1] | also measured |
| --- | --- | --- |
| Nc1nsc(C(=O)O)c1Br [E-VIII-015, 3-amino-4-bromo-1,2-thiazole-5-carboxylic acid] |  | melting point: 164.5 °C; chromatographic logP [1]: -0.07 |
| O=C(NCc1c(F)cc(F)cc1F)c1snc(N=S2CCCC2)c1F [II-081] | 1.39^[a] |  |
| O=C(NCCC1CCCCC1)c1snc(N=C(c2ccccc2)c2ccccc2)c1Cl [II-083] | 5.92^[a] |  |
| O=C(NCC1CCCCC1)c1snc(N=S(Cc2ccccc2)Cc2ccccc2)c1Cl [II-084] | 4.38^[a] |  |
| CS(Cc1ccccc1Cl)=Nc1nsc(C(=O)NCC2CCCCC2)c1Cl (centres unmarked) [II-085] | 3.61^[a] |  |
| CCCS(CC)=Nc1nsc(C(=O)NCC2CCCCC2)c1Cl (centres unmarked) [II-086] |  | LogP [c] [1]: 1.90^[c] |
| O=C(NCC1CCCCC1)c1snc(N=S2CCCCC2)c1Cl [II-088] | 2.60^[a] |  |
| CCCS(C)=Nc1nsc(C(=O)NCC2CCCCC2)c1Cl (centres unmarked) [II-089] | 2.23^[a] |  |
| O=C(NCC1CCCCC1)c1snc(N=S2CCOCC2)c1Cl [II-090] | 2.49^[a] |  |
| CCS(C)=Nc1nsc(C(=O)NCC2CCCCC2)c1Cl (centres unmarked) [II-091] | 1.94^[a] |  |
| O=C(NCC1CCCCC1)c1snc(N=S(c2ccccc2)c2ccccc2)c1Cl [II-092] | 4.77^[a] |  |
| CCCS(CC)=Nc1nsc(C(=O)NCC2CCCCC2)c1F (centres unmarked) [II-093] | 2.07^[a] |  |
| CCCS(CC)=Nc1nsc(C(=O)NCc2ccc(F)cc2F)c1F (centres unmarked) [II-094] | 1.77^[a] |  |
| O=C(NCCc1ccccc1)c1snc(N=C(c2ccccc2)c2ccccc2)c1Cl [II-095] | 4.69^[a] |  |
| COc1ccc(CNc2nsc(C(=O)N3CCCc4ccccc43)c2Cl)cc1 [II-097] | 3.84^[a] |  |
| COc1ccc(CNc2nsc(C(=O)N3CCc4c(Cl)cccc4C3)c2Cl)cc1 [II-098] | 4.20^[a] |  |

| Compound | LogP [a] [1] | also measured |
| --- | --- | --- |
| COc1ccc(CNc2nsc(C(=O)N3CCCc4cc(C)ccc43)c2Cl)cc1 [II-099] | 4.24 | LogP [b] [1]: 4.15 |
| COc1ccc(CNc2nsc(C(=O)N3c4ccccc4CCC3C)c2Cl)cc1 (centres unmarked) [II-100] | 4.14 | LogP [b] [1]: 4.09 |
| CC1CCc2ccccc2N1C(=O)c1snc(N)c1Cl (centres unmarked) [II-101] | 2.48 | LogP [b] [1]: 2.39 |
| COc1ccc(CNc2nsc(C(=O)N3CCCC3)c2Cl)cc1 [II-102] | 2.72 | LogP [b] [1]: 2.66 |
| CCCS(CC)=Nc1nsc(C(=O)NCc2cc(F)c(F)cc2F)c1F (centres unmarked) [II-103] | 2.10^[a] |  |
| CCCS(CC)=Nc1nsc(C(=O)NCc2ccc(F)c(F)c2F)c1F (centres unmarked) [II-104] | 1.96^[a] |  |
| CCCS(CC)=Nc1nsc(C(=O)NCc2c(F)cc(F)cc2F)c1F (centres unmarked) [II-105] | 1.92^[a] |  |
| COc1ccc(CNc2nsc(C(N)=O)c2Cl)cc1 [II-106] | 1.94^[a] |  |
| O=C(Nc1ccccc1)c1snc(N=C(c2ccccc2)c2ccccc2)c1Cl [II-107] | 4.62^[a] |  |
| COc1ccc(CNc2nsc(C(=O)N3CCCCC3)c2Cl)cc1 [II-108] | 3.22 | LogP [b] [1]: 3.16 |
| c1ccc(CN(Cc2ccccc2)c2ccsn2)cc1 [Z-A-001, N,N-dibenzyl-1,2-thiazol-3-amine] |  | chromatographic logP [1]: 4.13 |
| O=C(Nc1nscc1Cl)c1ccc(F)cc1 [Z-A-002] | 1.74^[a] |  |
| CC(C)(C)C(=O)Nc1nscc1Cl [Z-A-004] | 1.55^[a] |  |
| COc1ccc(CNc2nscc2Cl)cc1 [Z-A-005] | 3.00^[a] |  |
| COc1ccc(CN(Cc2ccccc2)c2nscc2Cl)cc1 [Z-A-007] | 5.03^[a] |  |
| COc1ccc(CN(Cc2ccc(C)cc2)c2nscc2Cl)cc1 [Z-A-008] | 5.48^[a] |  |
